In one test the target is T1, human RET kinase (Homo sapiens, UniProt P07949).
T1 construct: purchased Carna 08-159
The test is described as follows: RET Kinase Assay (LanthaScreen TR-FRET enzymatic assay). In kind it is biochemical. Conditions: 7 nM RET, 23 μM ATP. In outline:
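Human RET (7 nM) preincubated 15 min with compound in 50 mM HEPES pH 7.5, 0.0015% Brij-35, then reacted with 3 μM FAM-P2 peptide and 23 μM ATP for 1 h at 28° C.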
(TR-FRET usually uses a lanthanide donor and a delayed reading to cut background.)

For a further test, the target named is T2, human KDR kinase (Homo sapiens, UniProt P35968).
T2 construct: purchased Carna 08-191
T2 sequence (P35968 20-1356): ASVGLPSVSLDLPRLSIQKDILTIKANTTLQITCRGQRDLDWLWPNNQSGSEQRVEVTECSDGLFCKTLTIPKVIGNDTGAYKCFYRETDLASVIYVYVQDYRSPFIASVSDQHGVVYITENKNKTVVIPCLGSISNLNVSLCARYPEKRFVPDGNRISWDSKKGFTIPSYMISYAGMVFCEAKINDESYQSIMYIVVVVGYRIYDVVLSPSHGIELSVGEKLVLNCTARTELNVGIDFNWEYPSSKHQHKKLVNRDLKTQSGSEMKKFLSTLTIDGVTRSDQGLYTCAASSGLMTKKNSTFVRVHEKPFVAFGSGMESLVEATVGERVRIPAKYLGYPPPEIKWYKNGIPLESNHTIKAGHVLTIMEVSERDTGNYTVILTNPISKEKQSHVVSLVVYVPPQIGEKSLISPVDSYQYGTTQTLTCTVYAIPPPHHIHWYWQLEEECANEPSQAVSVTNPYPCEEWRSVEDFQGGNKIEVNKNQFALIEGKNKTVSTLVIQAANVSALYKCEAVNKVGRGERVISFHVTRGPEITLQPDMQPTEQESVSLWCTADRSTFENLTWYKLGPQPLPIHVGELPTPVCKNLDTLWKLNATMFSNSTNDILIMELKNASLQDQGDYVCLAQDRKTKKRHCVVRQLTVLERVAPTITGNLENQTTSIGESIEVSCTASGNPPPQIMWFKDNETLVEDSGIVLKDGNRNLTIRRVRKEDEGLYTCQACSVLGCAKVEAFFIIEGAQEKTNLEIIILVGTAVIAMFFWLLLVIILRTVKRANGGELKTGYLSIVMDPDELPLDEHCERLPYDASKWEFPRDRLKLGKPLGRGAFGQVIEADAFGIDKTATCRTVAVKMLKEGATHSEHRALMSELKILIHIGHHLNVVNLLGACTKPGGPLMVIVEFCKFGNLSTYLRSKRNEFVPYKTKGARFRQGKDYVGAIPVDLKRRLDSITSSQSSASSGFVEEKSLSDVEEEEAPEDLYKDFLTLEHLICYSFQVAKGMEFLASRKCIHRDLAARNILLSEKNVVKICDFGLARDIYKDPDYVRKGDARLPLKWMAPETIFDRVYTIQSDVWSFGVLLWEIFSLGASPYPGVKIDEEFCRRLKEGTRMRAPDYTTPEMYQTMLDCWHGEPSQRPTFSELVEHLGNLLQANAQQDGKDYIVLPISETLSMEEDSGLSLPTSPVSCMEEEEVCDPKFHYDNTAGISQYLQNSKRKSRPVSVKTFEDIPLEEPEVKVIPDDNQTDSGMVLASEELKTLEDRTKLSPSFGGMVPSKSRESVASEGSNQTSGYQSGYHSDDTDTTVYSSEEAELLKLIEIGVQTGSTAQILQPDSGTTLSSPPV
The experiment in a line: KDR Kinase Assay (LanthaScreen TR-FRET enzymatic assay). The note with it: 1.2 nM KDR, 92 μM ATP. In kind it is biochemical. In outline:
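Recombinant human KDR (1.2 nM) preincubated 15 min at room temperature with compound, then reacted with 3 μM FAM-P22 peptide and 92 μM ATP in 50 mM HEPES pH 7.5 for 1 h at 28° C. EDTA stop, then TR-FRET acceptor/donor ratio read; percent of 1% DMSO control fitted sigmoidally for IC50.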

The test system of another test is TT cells. The test is described as follows: TT Cell Proliferation Assay (WST-8, 8 days). Type of test: cell-based. Conditions: Homo sapiens, 192 h, growth inhibition in TT cells, read-out: TT Cellular Activity. In outline:
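TT cells, 6,000/well in RPMI-1640 with 10% FBS, attached 24 h, then exposed to compound at 5 μM down to 0.0005 μM final (0.5% DMSO) for 8 days at 37 °C. WST-8 added for 5 h, absorbance at 450 nm. IC50 calculated from the dilution series.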

A further test deals with T3, BAF3-KIF5B-RET cells (Homo sapiens, UniProt P07949).
T3 construct: fused on or other part: P33176 (Kinesin-1 heavy chain)
T3 sequence (P07949 whole entry, change not shown, the tested form may be a part): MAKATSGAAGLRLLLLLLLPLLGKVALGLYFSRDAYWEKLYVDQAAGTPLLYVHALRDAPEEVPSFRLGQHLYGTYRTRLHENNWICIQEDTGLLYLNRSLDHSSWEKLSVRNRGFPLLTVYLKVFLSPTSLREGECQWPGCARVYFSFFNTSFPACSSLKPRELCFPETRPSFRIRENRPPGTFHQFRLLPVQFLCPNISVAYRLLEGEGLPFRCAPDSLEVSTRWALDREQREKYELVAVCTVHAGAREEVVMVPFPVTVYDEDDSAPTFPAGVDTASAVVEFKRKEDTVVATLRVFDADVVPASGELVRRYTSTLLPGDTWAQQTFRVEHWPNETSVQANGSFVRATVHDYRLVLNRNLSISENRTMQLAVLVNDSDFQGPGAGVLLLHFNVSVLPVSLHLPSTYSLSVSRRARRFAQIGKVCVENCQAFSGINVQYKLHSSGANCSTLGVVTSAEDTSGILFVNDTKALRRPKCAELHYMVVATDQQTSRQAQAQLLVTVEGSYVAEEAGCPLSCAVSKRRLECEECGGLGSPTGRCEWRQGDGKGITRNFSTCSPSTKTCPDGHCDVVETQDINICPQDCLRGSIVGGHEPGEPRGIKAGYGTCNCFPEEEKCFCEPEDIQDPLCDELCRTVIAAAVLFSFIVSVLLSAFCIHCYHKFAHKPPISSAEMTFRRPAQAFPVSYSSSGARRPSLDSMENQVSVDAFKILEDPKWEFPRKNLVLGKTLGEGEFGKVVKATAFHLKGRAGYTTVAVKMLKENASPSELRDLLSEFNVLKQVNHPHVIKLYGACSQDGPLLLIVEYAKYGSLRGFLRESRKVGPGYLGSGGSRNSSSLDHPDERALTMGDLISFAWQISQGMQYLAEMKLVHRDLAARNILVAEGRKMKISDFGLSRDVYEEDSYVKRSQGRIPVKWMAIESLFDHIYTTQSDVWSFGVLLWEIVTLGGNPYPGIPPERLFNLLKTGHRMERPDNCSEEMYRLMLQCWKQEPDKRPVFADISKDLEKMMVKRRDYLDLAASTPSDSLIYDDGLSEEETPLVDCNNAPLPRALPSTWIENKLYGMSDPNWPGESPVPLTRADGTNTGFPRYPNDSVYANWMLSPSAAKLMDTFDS
The experiment in a line: BAF3-KIF5B-RET Cell proliferation assay (CellTiter-Glo, 72 hours). In kind it is cell-based. The note with it: growth inhibition, read-out: BA/F3-KIF5B-RET Cellular activity. In outline:
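Cells seeded at 2,000/well in RPMI-1640 with 10% FBS and left 24 h at 37 °C, then exposed 72 h to nine compound levels (final 1 μM down to 0.00015 μM, 0.1% DMSO). CellTiter-Glo luminescence gave viability versus DMSO wells, from which IC50 was fitted.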

pIC50: −log10 of the molar value. Where two headings read alike, the source gives them in different places. Some results are limits rather than exact numbers.

T1 sequence (P07949 29-1114): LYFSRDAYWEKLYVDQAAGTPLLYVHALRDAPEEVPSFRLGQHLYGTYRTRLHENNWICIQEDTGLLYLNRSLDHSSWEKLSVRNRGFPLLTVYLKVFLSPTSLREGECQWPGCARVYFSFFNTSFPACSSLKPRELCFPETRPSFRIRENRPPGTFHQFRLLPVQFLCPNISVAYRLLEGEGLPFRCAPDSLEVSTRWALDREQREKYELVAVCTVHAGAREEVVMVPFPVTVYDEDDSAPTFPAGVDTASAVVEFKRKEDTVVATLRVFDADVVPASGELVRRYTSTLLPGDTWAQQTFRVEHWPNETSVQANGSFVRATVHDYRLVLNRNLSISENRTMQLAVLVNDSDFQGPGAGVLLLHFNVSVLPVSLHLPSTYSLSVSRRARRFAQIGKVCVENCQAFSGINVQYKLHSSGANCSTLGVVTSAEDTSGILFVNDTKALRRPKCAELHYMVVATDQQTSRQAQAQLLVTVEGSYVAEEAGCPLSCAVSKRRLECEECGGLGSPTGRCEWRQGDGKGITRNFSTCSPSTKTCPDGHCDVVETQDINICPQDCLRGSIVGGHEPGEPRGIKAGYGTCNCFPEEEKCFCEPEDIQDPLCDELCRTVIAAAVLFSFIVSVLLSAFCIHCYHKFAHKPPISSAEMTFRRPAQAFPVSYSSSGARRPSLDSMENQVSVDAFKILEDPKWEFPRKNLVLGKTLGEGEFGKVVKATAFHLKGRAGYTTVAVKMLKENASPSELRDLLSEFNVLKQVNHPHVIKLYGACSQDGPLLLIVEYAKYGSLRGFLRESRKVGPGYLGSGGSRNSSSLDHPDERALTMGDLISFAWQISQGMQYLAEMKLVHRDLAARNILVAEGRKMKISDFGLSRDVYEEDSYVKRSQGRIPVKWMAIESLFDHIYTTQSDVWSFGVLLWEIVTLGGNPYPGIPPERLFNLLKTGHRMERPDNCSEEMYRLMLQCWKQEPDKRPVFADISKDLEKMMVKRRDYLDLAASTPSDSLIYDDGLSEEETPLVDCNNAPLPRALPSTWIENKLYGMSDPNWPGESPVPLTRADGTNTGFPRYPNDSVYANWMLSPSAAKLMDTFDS

As for `Cn1cc(-c2cc(-c3ccc(N4C[C@H]5CN(C(=O)c6ncccc6Cl)C[C@H]5C4)nc3)c3c(C#N)cnn3c2)cn1` [Example 4, 4-(6-((3aR,6aS)-5-(3-chloropicolinoyl)hexahydropyrrolo[3,4-c]pyrrol-2(1H)-yl)pyridin-3-yl)-6-(1-methyl-1H-pyrazol-4-yl)pyrazolo[1,5-a]pyridine-3-carbonitrile], the pIC50 on human RET kinase is not below 8.00; against human KDR kinase, 7.30 to 8.00; with TT cells (TT) it was not below 8.00. On BAF3-KIF5B-RET cells, the GI50 was not above 10 nM.

With `Cn1cc(-c2cc(-c3ccc(N4C[C@H]5CN(C(=O)c6c(F)cccc6Cl)C[C@H]5C4)nc3)c3c(C#N)cnn3c2)cn1` [Example 5, 4-(6-((3aR,6aS)-5-(2-chloro-6-fluorobenzoyl)hexahydropyrrolo[3,4-c]pyrrol-2(1H)-yl)pyridin-3-yl)-6-(1-methyl-1H-pyrazol-4-yl)pyrazolo[1,5-a]pyridine-3-carbonitrile], the pIC50 at human RET kinase, against human KDR kinase and with TT cells (TT) was not below 8.00 throughout. The GI50 on BAF3-KIF5B-RET cells is not above 10 nM.

Regarding `CC(C)(O)COc1cc(-c2ccc(N3C[C@H]4CN(C(=O)c5ncccc5Cl)C[C@H]4C3)nc2)c2c(C#N)cnn2c1` [Example 7, 4-(6-((3aR,6aS)-5-(3-chloropicolinoyl)hexahydropyrrolo[3,4-c]pyrrol-2(1H)-yl)pyridin-3-yl)-6-(2-hydroxy-2-methylpropoxy)pyrazolo[1,5-a]pyridine-3-carbonitrile], the figures for the pIC50 at human RET kinase, against human KDR kinase and in the test on TT cells (TT) were not below 8.00, less than 7.00 and not below 8.00, respectively. For the same compound, the GI50 at BAF3-KIF5B-RET cells fell in the range of 50 to 100 nM.

As to `CC(C)(O)COc1cc(-c2ccc(N3C[C@H]4CN(C(=O)c5c(F)cccc5Cl)C[C@H]4C3)nc2)c2c(C#N)cnn2c1` [Example 9, 4-(6-((3aR,6aS)-5-(2-chloro-6-fluorobenzoyl)hexahydropyrrolo[3,4-c]pyrrol-2(1H)-yl)pyridin-3-yl)-6-(2-hydroxy-2-methylpropoxy)pyrazolo[1,5-a]pyridine-3-carbonitrile], the results for the pIC50 at human RET kinase, against human KDR kinase and in the test with TT cells (TT) were not below 8.00, 7.00 to 7.30 and not below 8.00, respectively. The GI50 at BAF3-KIF5B-RET cells was 10 to 50 nM.

As for `Cn1cc(-c2cc(-c3ccc(N4C[C@@H]5CN(S(=O)(=O)c6c(F)cccc6Cl)C[C@@H]5C4)nc3)c3c(C#N)cnn3c2)cn1` [Example 11, 4-(6-((3aR,6aS)-5-(2-chloro-6-fluorophenylsulfonyl)hexahydropyrrolo[3,4-c]pyrrol-2(1H)-yl)pyridin-3-yl)-6-(1-methyl-1H-pyrazol-4-yl)pyrazolo[1,5-a]pyridine-3-carbonitrile], the pIC50 against human RET kinase, at human KDR kinase and with TT cells (TT) was not below 8.00 in each case. Also, at BAF3-KIF5B-RET cells, the GI50 was not above 10 nM.

As to `COc1ccc(CN2C[C@@H]3CN(c4ccc(-c5cc(-c6cnn(C)c6)cn6ncc(C#N)c56)cn4)C[C@@H]3C2)cn1` [Example 12, 4-(6-((3aR,6aS)-5-((6-methoxypyridin-3-yl)methyl)hexahydropyrrolo[3,4-c]pyrrol-2(1H)-yl)pyridin-3-yl)-6-(1-methyl-1H-pyrazol-4-yl)pyrazolo[1,5-a]pyridine-3-carbonitrile], the figures for the pIC50 at human RET kinase, against human KDR kinase and in the test on TT cells were not below 8.00, 7.30 to 8.00 and 7.30 to 8.00, respectively. Also, the GI50 at BAF3-KIF5B-RET cells was not above 10 nM.

Consider `Cn1cc(-c2cc(-c3ccc(N4C[C@@H]5[C@H](C4)[C@H]5NC(=O)c4ncccc4Cl)nc3)c3c(C#N)cnn3c2)cn1` [Example 20, 3-chloro-N-((1R,5S,6s)-3-(5-(3-cyano-6-(1-methyl-1H-pyrazol-4-yl)pyrazolo[1,5-a]pyridin-4-yl)pyridin-2-yl)-3-azabicyclo[3.1.0]hexan-6-yl)picolinamide], for which the pIC50 against human RET kinase was not below 8.00; against human KDR kinase it was 7.30 to 8.00; in the test with TT cells (TT), 7.30 to 8.00. Also, on BAF3-KIF5B-RET cells, the GI50 lay in the range of 10 to 50 nM.

Take `CC(C)(O)COc1cc(-c2ccc(N3C[C@@H]4[C@H](C3)[C@H]4NC(=O)c3ncccc3Cl)nc2)c2c(C#N)cnn2c1` [Example 37, 3-chloro-N-((1R,5S,6s)-3-(5-(3-cyano-6-(2-hydroxy-2-methylpropoxy)pyrazolo[1,5-a]pyridin-4-yl)pyridin-2-yl)-3-azabicyclo[3.1.0]hexan-6-yl)picolinamide]: the results for the pIC50 against human RET kinase, at human KDR kinase and in the test with TT cells (TT) were not below 8.00, less than 7.00 and 7.00 to 7.30, respectively. The GI50 at BAF3-KIF5B-RET cells was more than 100 nM.

With `Cn1cc(-c2cc(-c3cnc(N4C[C@@H]5[C@H](C4)[C@H]5NC(=O)c4ncccc4Cl)cn3)c3c(C#N)cnn3c2)cn1` [Example 102, 3-chloro-N-((1R,5S,6s)-3-(5-(3-cyano-6-(1-methyl-1H-pyrazol-4-yl)pyrazolo[1,5-a]pyridin-4-yl)pyrazin-2-yl)-3-azabicyclo[3.1.0]hexan-6-yl)picolinamide], the pIC50 on human RET kinase was not below 8.00; at human KDR kinase it was 7.00 to 7.30. For the same compound, the GI50 on BAF3-KIF5B-RET cells is 10 to 50 nM.

In the case of `CC(C)(O)COc1cc(-c2cnc(N3C[C@@H]4[C@@H](CNC(=O)c5ncccc5Cl)[C@@H]4C3)cn2)c2c(C#N)cnn2c1` [Example 103, 3-chloro-N-(((1R,5S,6s)-3-(5-(3-cyano-6-(2-hydroxy-2-methylpropoxy)pyrazolo[1,5-a]pyridin-4-yl)pyrazin-2-yl)-3-azabicyclo[3.1.0]hexan-6-yl)methyl)picolinamide], the results for the pIC50 on human RET kinase and against human KDR kinase were not below 8.00 and less than 7.00, respectively. At BAF3-KIF5B-RET cells, the GI50 lay within 10 to 50 nM.

In the case of `COc1ccc(C(=O)NC23CC4CC(C2)N(c2ccc(-c5cc(OCC(C)(C)O)cn6ncc(C#N)c56)cn2)C(C4)C3)cn1` [Example 138, N-((1R,3S,5s,7s)-2-(5-(3-cyano-6-(2-hydroxy-2-methylpropoxy)pyrazolo[1,5-a]pyridin-4-yl)pyridin-2-yl)-2-azaadamantan-5-yl)-6-methoxynicotinamide], the pIC50 against human RET kinase and against human KDR kinase was not below 8.00 each time. For the same compound, the GI50 on BAF3-KIF5B-RET cells was 10 to 50 nM.

As to `CC(C)(O)COc1cc(-c2cnc(N3C[C@@H]4C[C@@](C)(NC(=O)c5ncccc5Cl)C[C@@H]4C3)cn2)c2c(C#N)cnn2c1` [Example 143, 3-chloro-N-((3aR,5s,6aS)-2-(5-(3-cyano-6-(2-hydroxy-2-methylpropoxy)pyrazolo[1,5-a]pyridin-4-yl)pyrazin-2-yl)-5-methyloctahydrocyclopenta[c]pyrrol-5-yl)picolinamide], the values for the pIC50 against human RET kinase and at human KDR kinase were not below 8.00 and less than 7.00, respectively. Moreover, the GI50 at BAF3-KIF5B-RET cells is 10 to 50 nM.

As to `COc1ccc(CN[C@]2(C)C[C@H]3CN(c4ccc(-c5cc(-c6cnn(C)c6)cn6ncc(C#N)c56)cn4)C[C@H]3C2)cn1` [Example 152, 4-(6-((3aR,5s,6aS)-5-(((6-methoxypyridin-3-yl)methyl)amino)-5-methylhexahydrocyclopenta[c]pyrrol-2(1H)-yl)pyridin-3-yl)-6-(1-methyl-1H-pyrazol-4-yl)pyrazolo[1,5-a]pyridine-3-carbonitrile], the pIC50 against human RET kinase was not below 8.00; against human KDR kinase, 7.30 to 8.00. For the same compound, on BAF3-KIF5B-RET cells, the GI50 lay within 50 to 100 nM.

`Cn1cc(-c2cc(-c3cnc(N4C[C@@H]5[C@@H](CNC(=O)c6ncccc6Cl)[C@@H]5C4)cn3)c3c(C#N)cnn3c2)cn1` [Example 153, 3-chloro-N-(((1R,5S,6s)-3-(5-(3-cyano-6-(1-methyl-1H-pyrazol-4-yl)pyrazolo[1,5-a]pyridin-4-yl)pyrazin-2-yl)-3-azabicyclo[3.1.0]hexan-6-yl)methyl)picolinamide]: the pIC50 is not below 8.00 against human RET kinase and 7.30 to 8.00 against human KDR kinase. Besides, the GI50 on BAF3-KIF5B-RET cells was not above 10 nM.
